Data reported in patent US20070021441A1 (priority 2003, published 2007).
Where two headings read alike, the source gives them in different places.

Test system: Pyricularia oryzae
Format: in vivo
Details: individual active compound, protective, inoculated next day, assessed after 6 days

Row | SMILES | Efficacy in % of the untreated control (16 ppm in the spray liquor) | Efficacy in % of the untreated control (63 ppm in the spray liquor)
1 | CC1CCN(c2c(-c3c(F)cccc3Cl)c(Cl)nc3ncnn23)CC1 [A] | 35% | 61%
2 | C[C@H](Nc1c(-c2c(F)cc(F)cc2F)c(Cl)nc2ncnn12)C(F)(F)F [B] | 48% | 61%
3 | O=C1C2CC=CCC2C(=O)N1SC(Cl)(Cl)Cl (stereo not shown) [IIa, 2-trichloromethylsulfanyl-3a,4,7,7a-tetrahydroisoindole-1,3-dione] | 0% | 35%
4 | O=C1c2ccccc2C(=O)N1SC(Cl)(Cl)Cl [IIb, 2-trichloromethylsulfanylisoindole-1,3-dione] | 0% | 8%
5 | CC1CCN(c2c(-c3c(F)cc(F)cc3F)c(Cl)nc3ncnn23)CC1 [compound I, 5-chloro-7-(4-methylpiperidin-1-yl)-6-(2,4,6-trifluorophenyl)[1,2,4]triazolo[1,5-a]pyrimidine] | 21% | 48%
